These results are taken from US11912699B2, “Tau-protein targeting compounds and associated” (Arvinas Operations, Inc., priority 2019, dated 2024).

The test has as its target T1, Tau P301L (Homo sapiens, UniProt P10636, P618L).
T1 construct: expressed in transfected cells
The test is described as follows: In vitro tau degradation assay in CHOK1 Tau P301L cells (sarkosyl insoluble tau, WES). Format: cell-based. The conditions noted are these: CHO-K1; remaining tau protein in sarkosyl insoluble pellet; CHOK1 Tau P301L cells treated 48 hours with test compound at 1 μM, doxycycline removed for the last 24 hours; relative to DMSO doxycycline control; read-out: Tau Protein Degradation effect at 1 μM. How it is done: Exemplary bifunctional molecules of the present disclosure are represented by the structures in Table 1, which includes associated data. In vitro tau protein degradation data in CHOK1 Tau P301L cells, as described below, is reported based on the remaining tau protein in the sarkosyl insoluble pellet following treatment of cells for 48 hours with test compound at the 1 μM concentration where the last 24 hours doxycycline was removed. The data are represented relative to DMSO doxycycline control: • A ≤50% of tau protein remaining (>50% of tau protein degraded) • B >50% of tau protein remaining ([…] of tau protein degraded)
Data for compounds in Table 1 was generated using in vitro tau Degradation Assay protocol as described in Methods for FIGS. 2A and 2B below.
FIGS. 2A and 2B. (2A) Tau expression was induced by addition (+) of doxycycline (1 μg/ml) to ChoK1-Tau P301L clone D1.
In vitro tau Degradation Assay for FIGS. 2A and 2B. T-Rex CHOK1 cells are maintained in Ham's F-12 Nutrient Mix (ThermoFisher) plus 10% Fetal Bovine Serum Tetracycline Negative (Corning) with 10 ug/mL Blasticidin S HCl (Gibco) and 200 ug/mL Zeocin (100 mg/mL, Invitrogen). A stable clone expressing Tau P301L in the presence of doxycycline (1 μg/ml), clone D1 was selected. Compounds were diluted to indicated concentrations and used to treat cells for the indicated times. Cells were harvested from either 96, 24, 6, or 10 cm dishes coated with Poly-D-Lysine (Corning) in ice cold PBS or Buffer H+HALT Protease and phosphatase inhibitors (Thermofisher). Sarkosyl Insoluble tau was isolated as described in Eckermann et al. and Greenberg and Davies, accordingly. WES™ capillary electrophoresis analysis was performed on the Sarkosyl Insoluble tau fraction using Tau1 antibody (Milipore) unless otherwise indicated, as specified in the manufacturers specification (ProteinSimple).

Each structure is given as a SMILES string. Where a name gives a salt, the structure may show the parent alone. Some results are limits rather than exact numbers.

T1 sequence (P10636 1-441 isoform P10636-8 P301L): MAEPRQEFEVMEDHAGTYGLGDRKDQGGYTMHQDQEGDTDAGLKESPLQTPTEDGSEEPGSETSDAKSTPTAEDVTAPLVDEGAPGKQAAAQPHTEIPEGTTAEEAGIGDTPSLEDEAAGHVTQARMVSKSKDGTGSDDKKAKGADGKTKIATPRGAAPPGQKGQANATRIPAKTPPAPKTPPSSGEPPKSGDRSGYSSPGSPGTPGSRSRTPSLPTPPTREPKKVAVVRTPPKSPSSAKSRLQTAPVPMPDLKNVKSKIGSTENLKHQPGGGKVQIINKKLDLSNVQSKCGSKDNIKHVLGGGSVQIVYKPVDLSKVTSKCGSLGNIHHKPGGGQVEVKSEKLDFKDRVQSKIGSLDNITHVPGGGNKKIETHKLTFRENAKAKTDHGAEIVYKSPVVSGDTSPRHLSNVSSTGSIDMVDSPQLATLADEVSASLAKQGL

With `Cn1c2ccncc2c2ccc(-c3ccc(N4CC(OC5CCN(CCOc6ccc7c(c6)C(=O)N(C6CCC(=O)NC6=O)C7=O)CC5)C4)nc3)cc21` (stereo not shown) [Compound 416, 2-(2,6-dioxopiperidin-3-yl)-5-[2-(4-[[1-(5-[5-methylpyrido[4,3-b]indol-7-yl]pyridin-2-yl)azetidin-3-yl]oxy]piperidin-1-yl)ethoxy]isoindole-1,3-dione], the remaining activity at 1 µM is under 50%. Regarding `Cn1c2ccncc2c2ccc(-c3ccc(OCCOCCOCCOc4ccc5c(c4)C(=O)N(C4CCC(=O)NC4=O)C5=O)nc3)nc21` (stereo not shown) [Compound 419, 2-(2,6-dioxopiperidin-3-yl)-5-(2-(2-(2-((5-(9-methyl-9H-pyrrolo[2,3-b:4,5-c′]dipyridin-2-yl)pyridin-2-yl)oxy)ethoxy)ethoxy)ethoxy)isoindoline-1,3-dione], the remaining activity at 1 µM was over 50%. With `Cn1c2ccncc2c2ccc(-c3ccc(OC4CN(C5CCN(CCCCCOc6ccc7c(c6)C(=O)N(C6CCC(=O)NC6=O)C7=O)CC5)C4)nc3)cc21` (stereo not shown) [Compound 424, 2-(2,6-dioxopiperidin-3-yl)-5-((5-(4-(3-((5-(5-methyl-5H-pyrido[4,3-b]indol-7-yl)pyridin-2-yl)oxy)azetidin-1-yl)piperidin-1-yl)pentyl)oxy) isoindoline-1,3-dione], the remaining activity at 1 µM is over 50%. Turning to `O=C1CCC(N2C(=O)c3ccc(OCCOCCOCCN4CCC(c5ccc6c(c5)[nH]c5ccncc56)CC4)cc3C2=O)C(=O)N1` (stereo not shown) [Compound 431], the remaining activity at 1 µM was over 50%. Under `CC(C)N(CCCCOc1ccc2c(c1)C(=O)N(C1CCC(=O)NC1=O)C2=O)[C@H]1CC[C@H](O[C@H]2C[C@H](Oc3ccc(-c4ccc5c6cnccc6n(C)c5c4)cn3)C2)CC1` (stereo partly drawn) [Compound 436, 2-(2,6-dioxopiperidin-3-yl)-5-(4-(isopropyl((1R,4r)-4-((1r,3R)-3-((5-(5-methyl-5H-pyrido[4,3-b]indol-7-yl)pyridin-2-yl)oxy)cyclobutoxy)cyclohexyl)amino)butoxy)isoindoline-1,3-dione] stands under 50%. For `CN(C)c1ccn2cc(-c3ccc(OCCOCCOCCOc4ccc5c(c4)C(=O)N(C4CCC(=O)NC4=O)C5=O)cc3)nc2c1` (stereo not shown) [Compound 440, 5-(2-(2-(2-(4-(7-(dimethylamino)imidazo [1,2-a]pyridin-2-yl)phenoxy)ethoxy)ethoxy)ethoxy)-2-(2,6-dioxopiperidin-3-yl)isoindoline-1,3-dione], the remaining activity at 1 µM is over 50%. To `O=C1CCC(N2C(=O)c3ccc(OCCCCCN4CCC(OC5CN(c6ncc(-c7ccc8c9cnccc9n(C(F)F)c8c7)cc6C(F)(F)F)C5)CC4)cc3C2=O)C(=O)N1` (stereo not shown) [Compound 442, 5-[5-[14-[1-[5-[5-(Difluoromethyl)pyrido[4,3-b]indol-7-yl]-3-(trifluoromethyl)-2-pyridyl]azetidin-3-yl]oxy-1-piperidyl]pentoxy]-2-(2,6-dioxo-3-piperidyl)isoindoline-1,3-dione formate] belongs under 50%; to `Cn1c2ccncc2c2ccc(-c3ccc(N4CC(C(=O)N5CCN(CCCCCOc6ccc7c(c6)C(=O)N(C6CCC(=O)NC6=O)C7=O)CC5)C4)nc3)cc21` (stereo not shown) [Compound 446, 2-(2,6-dioxopiperidin-3-yl)-5-((5-(4-(1-(5-(5-methyl-5H-pyrido[4,3-b]indol-7-yl)pyridin-2-yl)azetidine-3-carbonyl)piperazin-1-yl)pentyl)oxy) isoindoline-1,3-dione], over 50%. As for `Cc1cnc(Nc2ccc3cnccc3c2)cc1N1CCC(CCN2CCN(c3ccc4c(c3)C(=O)N(C3CCC(=O)NC3=O)C4=O)CC2)CC1` (stereo not shown) [Compound 447, 2-(2,6-dioxopiperidin-3-yl)-5-(4-(2-(1-(2-(isoquinolin-6-ylamino)-5-methylpyridin-4-yl)piperidin-4-yl)ethyl)piperazin-1-yl)isoindoline-1,3-dione], the remaining activity at 1 µM was under 50%. To `O=C1CCC(N2C(=O)c3ccc(OCCCCCN4CCC(OC5CN(c6ccc(-c7ccn8c(n7)nc7ccccc78)cn6)C5)CC4)cc3C2=O)C(=O)N1` (stereo not shown) [Compound 450, 2-(2,6-dioxo-3-piperidyl)-5-[5-[4-[1-(5-pyrimido[1,2-a]benzimidazol-2-yl-2-pyridyl)azetidin-3-yl]oxy-1-piperidyl]pentoxy]isoindoline-1,3-dione formate] belongs under 50%; to `N#Cc1cc(-c2ccc3c4cnccc4n(C(F)F)c3c2)cnc1N1CCC(CCN2CCN(c3ccc4c(c3)C(=O)N(C3CCC(=O)NC3=O)C4=O)CC2)CC1` (stereo not shown) [Compound 454, 5-(5-(difluoromethyl)-5H-pyrido[4,3-b]indol-7-yl)-2-(4-(2-(4-(2-(2,6-dioxopiperidin-3-yl)-1,3-dioxoisoindolin-5-yl)piperazin-1-yl)ethyl)piperidin-1-yl)nicotinonitrile], under 50%; to `Cn1c2ccncc2c2ccc(-c3ccc(OC4CC5(C4)CN(C(=O)CN4CCN(CC6CN(c7ccc8c(c7)C(=O)N(C7CCC(=O)NC7=O)C8=O)C6)CC4)C5)nc3)cc21` (stereo not shown) [Compound 458, 2-(2,6-dioxopiperidin-3-yl)-5-(3-((4-(2-(6-((5-(5-methyl-5H-pyrido[4,3-b]indol-7-yl)pyridin-2-yl)oxy)-2-azaspiro [3.3]heptan-2-yl)-2-oxoethyl)piperazin-1-yl)methyl)azetidin-1-yl)isoindoline-1,3-dione], over 50%. Take `O=C1CCC(N2C(=O)c3ccc(OCCN4CC5(C4)CN(C[C@H]4C[C@H](OC6CCN(c7ccn8c(n7)nc7ccccc78)CC6)C4)C5)cc3C2=O)C(=O)N1` (stereo partly shown) [Compound 460, 5-(2-(6-(((1r,3r)-3-((1-(benzo[4,5]imidazo[1,2-a]pyrimidin-2-yl)piperidin-4-yl)oxy)cyclobutyl)methyl)-2,6-diazaspiro[3.3]heptan-2-yl)ethoxy)-2-(2,6-dioxopiperidin-3-yl)isoindoline-1,3-dione]: the remaining activity at 1 µM was over 50%. To `Cn1c2ccncc2c2ccc(-c3ccc(OC4CC5(C4)CN(C(=O)CN4CCC(OC6CN(c7ccc8c(c7)C(=O)N(C7CCC(=O)NC7=O)C8=O)C6)CC4)C5)nc3)cc21` (stereo not shown) [Compound 462, 2-(2,6-dioxopiperidin-3-yl)-5-(3-((1-(2-(6-((5-(5-methyl-5H-pyrido[4,3-b]indol-7-yl)pyridin-2-yl)oxy)-2-azaspiro[3.3]heptan-2-yl)-2-oxoethyl)piperidin-4-yl)oxy)azetidin-1-yl)isoindoline-1,3-dione] belongs over 50%; to `Cc1ccc(-c2cn3ccc(N(C)CCOCCOCCOc4ccc5c(c4)C(=O)N(C4CCC(=O)NC4=O)C5=O)cc3n2)cc1` (stereo not shown) [Compound 463, 2-(2,6-dioxopiperidin-3-yl)-5-(2-(2-(2-(methyl(2-(p-tolyl)imidazo[1,2-a]pyridin-7-yl)amino)ethoxy)ethoxy)ethoxy)isoindoline-1,3-dione], under 50%. Consider `Cn1c2ccncc2c2ccc(-c3ccc(OC4CC5(C4)CN(C(=O)CC4CCN(CC6CN(c7ccc8c(c7)C(=O)N(C7CCC(=O)NC7=O)C8=O)C6)CC4)C5)nc3)cc21` (stereo not shown) [Compound 472, 2-(2,6-dioxopiperidin-3-yl)-5-(3-((4-(2-(6-((5-(5-methyl-5H-pyrido[4,3-b]indol-7-yl)pyridin-2-yl)oxy)-2-azaspiro[3.3]heptan-2-yl)-2-oxoethyl)piperidin-1-yl)methyl)azetidin-1-yl)isoindoline-1,3-dione], for which the remaining activity at 1 µM was under 50%. On to `O=C1CCC(N2C(=O)c3ccc(OCCN4CC5(C4)CN(C[C@H]4C[C@H](Oc6ccc(-c7ccn8c(n7)nc7ccccc78)cn6)C4)C5)cc3C2=O)C(=O)N1` (stereo partly shown) [Compound 473, 5-(2-(6-(((1r,3r)-3-((5-(benzo[4,5]imidazo[1,2-a]pyrimidin-2-yl)pyridin-2-yl)oxy)cyclobutyl)methyl)-2,6-diazaspiro[3.3]heptan-2-yl)ethoxy)-2-(2,6-dioxopiperidin-3-yl)isoindoline-1,3-dione], for which the remaining activity at 1 µM was under 50%. To `N#Cc1cc(-c2ccc3c4cnccc4n(C(F)F)c3c2)cnc1N1CCC(CCN2CCN(c3ccc4c(c3)CN(C3CCC(=O)NC3=O)C4=O)CC2)CC1` (stereo not shown) [Compound 475, 5-(5-(difluoromethyl)-5H-pyrido[4,3-b]indol-7-yl)-2-(4-(2-(4-(2-(2,6-dioxopiperidin-3-yl)-1-oxoisoindolin-5-yl)piperazin-1-yl)ethyl)piperidin-1-yl)nicotinonitrile] belongs over 50%. To `Cn1c2ccncc2c2ccc(-c3ccc(O[C@H]4C[C@H](CN5CCC(CCOc6ccc7c(c6)C(=O)N(C6CCC(=O)NC6=O)C7=O)CC5)C4)nc3)cc21` (stereo partly shown) [Compound 478, 2-(2,6-dioxopiperidin-3-yl)-5-(2-(1-(((1r,3r)-3-((5-(5-methyl-5H-pyrido[4,3-b]indol-7-yl)pyridin-2-yl)oxy)cyclobutyl)methyl)piperidin-4-yl)ethoxy)isoindoline-1,3-dione] belongs over 50%.
